From ChEMBL document CHEMBL4602732, “Optimizing Pyrazolopyrimidine Inhibitors of Calcium Dependent Protein Kinase 1 for Treatment of Acute and Chronic Toxoplasmosis” (J Med Chem, 2020)
Activity calls are given as the source filed them. No cut-off for these calls is given here.

What was measured:
[1] = Inhibition of Toxoplasma gondii full-length C-terminal His-tagged CDPK1 G128M mutant expressed in Escherichia coli BL21(DE3)V2RpAcYc-LIC+LamP using syntide-2 peptide as substrate incubated for 20 to 40 mins by ELISA
[2] = target: T1, Cytochrome P450 1A2 (Homo sapiens, UniProt P05177); experiment: Inhibition of CYP1A2 in human liver microsomes using phenacetin as substrate measured after 10 mins by LC-MS/MS analysis; type: ADME
T1 sequence (P05177 whole entry): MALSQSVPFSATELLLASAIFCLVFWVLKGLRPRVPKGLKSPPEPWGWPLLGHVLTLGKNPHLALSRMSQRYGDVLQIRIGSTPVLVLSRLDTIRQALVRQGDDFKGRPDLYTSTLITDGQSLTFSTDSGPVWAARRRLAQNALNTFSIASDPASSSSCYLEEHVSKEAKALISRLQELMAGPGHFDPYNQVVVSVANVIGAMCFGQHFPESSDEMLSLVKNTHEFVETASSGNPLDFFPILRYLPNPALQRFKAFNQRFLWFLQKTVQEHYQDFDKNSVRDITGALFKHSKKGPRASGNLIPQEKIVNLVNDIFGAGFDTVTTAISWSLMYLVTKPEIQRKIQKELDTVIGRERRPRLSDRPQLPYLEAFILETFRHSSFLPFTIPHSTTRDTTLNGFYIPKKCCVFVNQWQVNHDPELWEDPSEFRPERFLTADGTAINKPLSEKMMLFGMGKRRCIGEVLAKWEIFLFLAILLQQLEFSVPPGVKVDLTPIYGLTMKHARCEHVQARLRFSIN

[3] = Half life in mouse liver microsomes at 10 uM preincubated for 10 mins followed by NADPH addition by LC-MS/MS analysis; type: ADME, Microsome; settings: liver microsomes
[4] = Half life in human liver microsomes at 10 uM preincubated for 10 mins followed by NADPH addition by LC-MS/MS analysis; type: ADME, Microsome; settings: liver microsomes
[5] = target: PTK6 (Homo sapiens, UniProt Q13882); experiment: Inhibition of recombinant human full-length His-tagged PTK6 cytoplasmic domain expressed in baculovirus expression system at 1 uM using Fluorescein-Poly GT as substrate by Lanthascreen assay relative to control; settings: probe Fluorescein-Poly GT
[6] = Apparent permeability across apical to basolateral side in MDCK2-MDR1 cells at 2 uM measured after 150 mins by LC-MS/MS analysis; type: ADME, cell-based, Canis lupus familiaris; settings: dog, mdck-mdr1, […]
[7] = Intrinsic clearance in human liver microsomes at 10 uM preincubated for 10 mins followed by NADPH addition by LC-MS/MS analysis; type: ADME, Microsome; settings: read-out: CLH
[8] = Cytotoxicity against human HepG2 cells assessed as cell growth at 20 uM measured after 72 hrs by cellTiter 96 AQueous non-radioactive cell proliferation assay relative to control; type: cell-based; settings: read-out: Activity
[9] = Cytotoxicity against human Caco2 cells assessed as cell growth at 20 uM measured after 72 hrs by cellTiter 96 AQueous non-radioactive cell proliferation assay relative to control; type: cell-based, Caco-2; settings: read-out: Activity
[10] = target: LCK (Homo sapiens, UniProt P06239); experiment: Inhibition of wild-type human partial length LCK (R207 to P509 residues) expressed in bacterial expression system at 10 uM by Kinomescan method relative to control
[11] = Genotoxicity in Salmonella typhimurium TA98 at 0.004 to 5 mg/ml measured after 90 mins in absence of rat S9 fraction by mini-Ames test; type: toxicity; settings: salmonella enterica subsp. enterica serovar typhimurium
[12] = system: Src (human) versus Toxoplasma gondii CDPK1; experiment: Selectivity ratio of IC50 for inhibition of human Src expressed in Escherichia coli BL21 to IC50 for inhibition of Toxoplasma gondii full-length wild-type C-terminal His-tagged CDPK1 expressed in Escherichia coli BL21(DE3)V2RpAcYc-LIC+LamP; type: toxicity; settings: read-out: Ratio IC50
[13] = system: Toxoplasma gondii; experiment: Antiparasitic activity against type 2 Toxoplasma gondii ME49 tachyzoites infected in HFF assessed as reduction in parasite growth; type: functional, organism-based
[14] = target: Cytochrome P450 2C19 (Homo sapiens, UniProt P33261); experiment: Inhibition of CYP2C19 in human liver microsomes using S-mephenytoin as substrate measured after 10 mins by LC-MS/MS analysis; type: ADME
[15] = target: MAP4K4 (Homo sapiens, UniProt O95819); experiment: Inhibition of recombinant human GST-tagged MAP4K4 catalytic domain expressed in baculovirus expression system at 1 uM by Lanthascreen assay relative to control
[16] = Kinetic solubility of the compound in pH 7.4 phosphate buffer measured after 24 hrs by UV-HPLC analysis; type: physicochemical; settings: pH 7.4, 24 h
[17] = Ratio of drug level in central nervous system to plasma in CD1 mouse at 10 mg/kg, po administered via gavage measured after 8 hrs by LC-MS/MS analysis; type: ADME, organism-based, CNS/Plasma; settings: central nervous system and plasma
[18] = system: Toxoplasma gondii; experiment: Antiparasitic activity against type 1 Toxoplasma gondii RH tachyzoites infected in CD1 mouse assessed as reduction in parasite expansion at 60 mg/kg, po administered once daily via gavage for 7 days by bioluminescence assay; type: functional, organism-based
[19] = system: Toxoplasma gondii; experiment: Antiparasitic activity against type 1 Toxoplasma gondii RH tachyzoites infected in CD1 mouse assessed as reduction in parasite expansion at 15 mg/kg, po administered four times daily via gavage for 7 days by bioluminescence assay; type: functional, organism-based
[20] = system: Toxoplasma gondii; experiment: Antiparasitic activity against type 1 Toxoplasma gondii RH tachyzoites infected in CD1 mouse assessed as reduction in parasite dissemination at 30 mg/kg, po administered twice daily via gavage for 7 days by bioluminescence assay; type: functional, organism-based
[21] = system: Toxoplasma gondii; experiment: Antiparasitic activity against type 1 Toxoplasma gondii RH tachyzoites infected in CD1 mouse assessed as reduction in mouse death at 60 mg/kg, po administered once daily via gavage for 7 days by bioluminescence assay; type: functional, organism-based
[22] = system: Toxoplasma gondii; experiment: Antiparasitic activity against type 1 Toxoplasma gondii RH tachyzoites infected in CD1 mouse assessed as reduction in mouse death at 15 mg/kg, po administered four times daily via gavage for 7 days by bioluminescence assay; type: functional, organism-based
[23] = system: Toxoplasma gondii; experiment: Antiparasitic activity against type 1 Toxoplasma gondii RH tachyzoites infected in CD1 mouse assessed as reduction in mouse death at 60 mg/kg, po administered once daily via gavage for 7 days followed by lung and brain isolation on 15 days post-infection and co-culture with naive CD1 mouse; type: functional, organism-based
[24] = system: Toxoplasma gondii; experiment: Antiparasitic activity against type 1 Toxoplasma gondii RH tachyzoites infected in CD1 mouse assessed as […] at 30 mg/kg, po administered twice daily via gavage for 7 days followed by lung and brain isolation on 15 days post-infection and co-culture with naive CD1 mouse; type: functional
[25] = system: Toxoplasma gondii; experiment: Antiparasitic activity against type 1 Toxoplasma gondii RH tachyzoites infected in CD1 mouse assessed as […] at 15 mg/kg, po administered four times daily via gavage for 7 days followed by lung and brain isolation on 15 days post-infection and co-culture with naive CD1 mouse; type: functional
[26] = system: Toxoplasma gondii; experiment: Protection against reactivation of type 2 Toxoplasma gondii ME49 infection in sulfadiazin-treated Ifngr1-/- CD1 mouse assessed as reduction in parasite infection at 60 mg/kg, po administered twice daily via gavage for 8 days measured up to 30 days by luciferase reporter gene based bioluminescence assay; type: functional, organism-based
[27] = system: Toxoplasma gondii; experiment: Protection against reactivation of type 2 Toxoplasma gondii ME49 infection in sulfadiazin-treated Ifngr1-/- CD1 mouse assessed as reduction in serological conversion at 60 mg/kg, po administered twice daily via gavage for 21 days followed by brain isolation on 30 days post-infection and co-culture with Ifngr1-/- CD1 mouse; type: functional, organism-based

Chain of PTK6 (Q13882 whole entry, the tested form may be a part): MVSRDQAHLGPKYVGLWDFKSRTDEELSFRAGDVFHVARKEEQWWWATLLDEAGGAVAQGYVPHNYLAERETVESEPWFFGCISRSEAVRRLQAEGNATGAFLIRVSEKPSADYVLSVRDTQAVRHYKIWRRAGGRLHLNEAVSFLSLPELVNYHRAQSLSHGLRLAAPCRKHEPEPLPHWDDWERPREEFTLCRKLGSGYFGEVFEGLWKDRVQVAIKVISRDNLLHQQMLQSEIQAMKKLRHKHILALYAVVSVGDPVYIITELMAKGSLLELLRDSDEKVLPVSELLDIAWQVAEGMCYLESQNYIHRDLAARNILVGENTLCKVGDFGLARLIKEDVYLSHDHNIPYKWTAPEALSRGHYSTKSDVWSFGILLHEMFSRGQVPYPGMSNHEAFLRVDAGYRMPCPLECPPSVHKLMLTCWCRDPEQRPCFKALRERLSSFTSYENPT
Chain of LCK (P06239 whole entry, the tested form may be a part): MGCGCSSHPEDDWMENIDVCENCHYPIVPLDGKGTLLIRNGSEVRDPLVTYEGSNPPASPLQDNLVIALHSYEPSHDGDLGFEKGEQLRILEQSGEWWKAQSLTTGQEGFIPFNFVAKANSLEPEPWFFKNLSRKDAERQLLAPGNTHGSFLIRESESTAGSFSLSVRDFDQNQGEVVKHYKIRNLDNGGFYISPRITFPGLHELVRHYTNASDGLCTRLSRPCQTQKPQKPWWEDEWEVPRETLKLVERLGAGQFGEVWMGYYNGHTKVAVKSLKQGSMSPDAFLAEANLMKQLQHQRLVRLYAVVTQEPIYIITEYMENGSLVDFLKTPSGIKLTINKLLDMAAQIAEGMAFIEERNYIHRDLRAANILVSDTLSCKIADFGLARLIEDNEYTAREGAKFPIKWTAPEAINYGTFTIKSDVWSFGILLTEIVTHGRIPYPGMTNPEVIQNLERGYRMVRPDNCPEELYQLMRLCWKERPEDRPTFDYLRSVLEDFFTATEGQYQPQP
Chain of Cytochrome P450 2C19 (P33261 whole entry, the tested form may be a part): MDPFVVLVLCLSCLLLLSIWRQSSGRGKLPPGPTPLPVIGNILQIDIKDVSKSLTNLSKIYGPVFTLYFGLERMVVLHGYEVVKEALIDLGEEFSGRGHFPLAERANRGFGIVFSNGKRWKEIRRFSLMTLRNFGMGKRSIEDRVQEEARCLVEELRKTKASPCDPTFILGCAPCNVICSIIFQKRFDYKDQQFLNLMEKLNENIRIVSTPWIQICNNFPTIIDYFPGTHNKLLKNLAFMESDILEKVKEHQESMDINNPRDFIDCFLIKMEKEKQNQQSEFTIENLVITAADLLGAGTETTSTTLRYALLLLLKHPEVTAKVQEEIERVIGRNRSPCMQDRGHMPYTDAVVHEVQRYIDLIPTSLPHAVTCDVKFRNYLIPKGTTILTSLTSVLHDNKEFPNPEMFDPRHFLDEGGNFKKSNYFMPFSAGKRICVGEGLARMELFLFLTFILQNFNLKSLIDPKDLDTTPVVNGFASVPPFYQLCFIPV
Chain of MAP4K4 (O95819 whole entry, the tested form may be a part): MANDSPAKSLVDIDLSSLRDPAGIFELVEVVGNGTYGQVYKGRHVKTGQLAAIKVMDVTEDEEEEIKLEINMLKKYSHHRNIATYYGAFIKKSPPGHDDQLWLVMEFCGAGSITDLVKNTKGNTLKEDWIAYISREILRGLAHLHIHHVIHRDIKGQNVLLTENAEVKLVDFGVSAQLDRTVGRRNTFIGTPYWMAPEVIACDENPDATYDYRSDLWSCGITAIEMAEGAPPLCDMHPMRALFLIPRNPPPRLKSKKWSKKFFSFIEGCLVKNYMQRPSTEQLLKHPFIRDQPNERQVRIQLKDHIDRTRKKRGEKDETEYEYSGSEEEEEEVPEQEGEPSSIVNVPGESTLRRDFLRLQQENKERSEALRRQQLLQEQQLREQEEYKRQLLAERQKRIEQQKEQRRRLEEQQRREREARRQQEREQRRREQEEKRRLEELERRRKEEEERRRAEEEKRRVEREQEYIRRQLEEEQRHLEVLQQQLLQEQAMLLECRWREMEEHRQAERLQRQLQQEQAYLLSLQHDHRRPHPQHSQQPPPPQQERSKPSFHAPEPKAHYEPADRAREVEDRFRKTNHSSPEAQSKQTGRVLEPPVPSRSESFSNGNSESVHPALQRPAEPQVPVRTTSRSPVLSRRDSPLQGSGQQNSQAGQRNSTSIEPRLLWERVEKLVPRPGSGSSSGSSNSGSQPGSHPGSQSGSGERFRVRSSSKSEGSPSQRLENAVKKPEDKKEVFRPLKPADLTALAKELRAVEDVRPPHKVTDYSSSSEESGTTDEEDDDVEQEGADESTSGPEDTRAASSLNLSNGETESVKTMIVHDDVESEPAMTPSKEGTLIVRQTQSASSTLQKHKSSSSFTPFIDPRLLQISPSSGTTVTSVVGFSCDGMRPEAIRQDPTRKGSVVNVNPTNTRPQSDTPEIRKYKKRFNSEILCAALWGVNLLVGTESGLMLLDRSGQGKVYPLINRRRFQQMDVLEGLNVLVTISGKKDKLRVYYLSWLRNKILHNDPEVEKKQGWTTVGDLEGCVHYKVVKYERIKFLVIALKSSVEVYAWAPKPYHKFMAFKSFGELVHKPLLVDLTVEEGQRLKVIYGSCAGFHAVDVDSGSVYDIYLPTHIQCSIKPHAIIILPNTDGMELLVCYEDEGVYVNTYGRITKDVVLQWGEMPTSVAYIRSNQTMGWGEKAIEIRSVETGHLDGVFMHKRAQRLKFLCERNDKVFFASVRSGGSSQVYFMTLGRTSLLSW

N#Cc1ccnc(Oc2nn([C@H]3C[C@H](F)C3)c3ncnc(N)c23)c1
IC50 [1]: > 20 µM | EC50 [2]: 20.8 µM | half-life at 10 µM [3]: > 2.42 h | half-life at 10 µM [4]: > 2.42 h | inhibition at 1 µM [5]: > 50% | Papp [6]: 26.87 ×10⁻⁶ cm/s | CLint scaled at 10 µM [7]: < 8.6 mL/min/kg | viability at 72 h, 20 µM [8]: 101% | viability at 72 h, 20 µM [9]: 95.5% | inhibition at 10 µM [10]: 74% | Activity [11]: Non-Toxic

Nc1ncnc2c1c(Oc1cc(C(F)(F)F)ccn1)nn2C1CC1
selectivity ratio [12]: > 1000 | IC50 [1]: > 20 µM | EC50 [13]: 0.26 µM | EC50 [14]: 5.78 µM | EC50 [2]: 0.46 µM | half-life at 10 µM [3]: > 2.42 h | half-life at 10 µM [4]: > 2.42 h | inhibition at 1 µM [5]: > 50% | inhibition at 1 µM [15]: > 50% | Papp [6]: 33 ×10⁻⁶ cm/s | CLint scaled at 10 µM [7]: < 8.6 mL/min/kg | Kinetic_solubility [16]: 191 µM | viability at 72 h, 20 µM [8]: 104% | viability at 72 h, 20 µM [9]: 93.3% | inhibition at 10 µM [10]: 55% | Activity [11]: Non-Toxic | Kp at 8 h [17]: 0.96 | Activity [18]: Active | Activity [19]: Active | Activity [20]: Active | Activity [21]: Active | Activity [22]: Active | Activity [23]: inactive | survival at 30 mg/kg [24]: 20% | survival at 15 mg/kg [25]: 20% | Activity [26]: inactive | Activity [27]: Active
